Data reported in ChEMBL document CHEMBL5338707, “Design, synthesis and bioactivity evaluation of favorable evodiamine derivative scaffold for developing cancer therapy” (Eur J Med Chem, 2022).
The source made the active and inactive calls. No cut-off for these calls is given here.

What was measured:
[1] = biological target: T1, DNA topoisomerase 1 (Homo sapiens) (UniProt P11387); test: Inhibition of Topoisomerase 1 (unknown origin) at 100 uM incubated for 15 mins by electrophoretic analysis
T1 sequence (whole entry): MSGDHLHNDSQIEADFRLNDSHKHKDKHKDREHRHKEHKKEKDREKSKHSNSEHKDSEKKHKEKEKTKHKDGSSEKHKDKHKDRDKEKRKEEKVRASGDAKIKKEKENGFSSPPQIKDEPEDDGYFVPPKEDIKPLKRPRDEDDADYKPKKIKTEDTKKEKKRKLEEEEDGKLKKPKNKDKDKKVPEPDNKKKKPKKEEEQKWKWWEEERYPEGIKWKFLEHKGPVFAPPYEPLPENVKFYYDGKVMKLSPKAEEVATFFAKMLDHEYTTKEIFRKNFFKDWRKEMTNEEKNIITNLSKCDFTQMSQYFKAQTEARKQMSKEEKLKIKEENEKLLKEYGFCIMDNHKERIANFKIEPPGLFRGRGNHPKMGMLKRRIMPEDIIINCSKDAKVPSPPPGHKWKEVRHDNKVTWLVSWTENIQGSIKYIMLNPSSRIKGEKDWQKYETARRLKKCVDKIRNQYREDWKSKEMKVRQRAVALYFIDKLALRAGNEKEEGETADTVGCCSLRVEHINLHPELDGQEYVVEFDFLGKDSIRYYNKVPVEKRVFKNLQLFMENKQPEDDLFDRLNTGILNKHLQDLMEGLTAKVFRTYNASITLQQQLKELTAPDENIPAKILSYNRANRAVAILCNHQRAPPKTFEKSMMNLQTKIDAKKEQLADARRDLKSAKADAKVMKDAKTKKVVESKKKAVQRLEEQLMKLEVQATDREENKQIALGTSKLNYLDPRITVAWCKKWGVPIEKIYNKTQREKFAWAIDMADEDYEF

[2] = biological target: T1, DNA topoisomerase 1 (Homo sapiens); test: Inhibition of Topoisomerase 1 (unknown origin) at 25 uM incubated for 15 mins by electrophoretic analysis relative to control
[3] = biological target: T1, DNA topoisomerase 1 (Homo sapiens); test: Inhibition of Topoisomerase 1 (unknown origin) at 50 uM incubated for 15 mins by electrophoretic analysis
[4] = test system: MGC-803; test: Induction of apoptosis in human MGC-803 cells assessed as necrotic cells at 96 nM incubated for 24 hrs by AnnexinV-FITC/PI staining based flow cytometric analysis (reference value: 0.53%); format: functional
[5] = test system: SGC-7901; test: Induction of apoptosis in human SGC-7901 cells assessed as necrotic cells at 96 nM incubated for 24 hrs by AnnexinV-FITC/PI staining based flow cytometric analysis (reference value: 0.63%); format: functional
[6] = test system: SGC-7901; test: Induction of apoptosis in human SGC-7901 cells assessed as early apoptotic cells at 96 nM incubated for 24 hrs by AnnexinV-FITC/PI staining based flow cytometric analysis (reference value: 0.47%); format: functional
[7] = test system: SGC-7901; test: Cell cycle arrest in human SGC-7901 cells assessed as accumulation of cells at G0/G1 phase at 48 nM incubated for 24 hrs by PI staining based flow cytometric analysis (Rvb =84.12%); format: functional
[8] = test system: MGC-803; test: Induction of apoptosis in human MGC-803 cells assessed as viable cells at 96 nM incubated for 24 hrs by AnnexinV-FITC/PI staining based flow cytometric analysis (reference value: 98.59%); format: functional; settings: read-out: Activity
[9] = test system: MGC-803; test: Cell cycle arrest in human MGC-803 cells assessed as accumulation of cells at G0/G1 phase at 48 nM incubated for 24 hrs by PI staining based flow cytometric analysis (Rvb =76.60%); format: functional
[10] = test system: MGC-803; test: Cell cycle arrest in human MGC-803 cells assessed as accumulation of cells at S phase at 48 nM incubated for 24 hrs by PI staining based flow cytometric analysis (Rvb =7.84%); format: functional
[11] = test system: SGC-7901; test: Induction of apoptosis in human SGC-7901 cells assessed as viable cells at 96 nM incubated for 24 hrs by AnnexinV-FITC/PI staining based flow cytometric analysis (reference value: 96.94%); format: functional; settings: read-out: Activity
[12] = test system: SGC-7901; test: Induction of apoptosis in human SGC-7901 cells assessed as late apoptotic cells at 96 nM incubated for 24 hrs by AnnexinV-FITC/PI staining based flow cytometric analysis (reference value: 2.00%); format: functional
[13] = test system: MGC-803; test: Induction of apoptosis in human MGC-803 cells assessed as late apoptotic cells at 96 nM incubated for 24 hrs by AnnexinV-FITC/PI staining based flow cytometric analysis (reference value: 0.52%); format: functional
[14] = test system: MGC-803; test: Cell cycle arrest in human MGC-803 cells assessed as accumulation of cells at G2/M phase at 48 nM incubated for 24 hrs by PI staining based flow cytometric analysis (Rvb =15.42%); format: functional
[15] = test system: SGC-7901; test: Cell cycle arrest in human SGC-7901 cells assessed as accumulation of cells at S phase at 48 nM incubated for 24 hrs by PI staining based flow cytometric analysis (Rvb =18.41%); format: functional
[16] = test system: SGC-7901; test: Cell cycle arrest in human SGC-7901 cells assessed as accumulation of cells at G2/M phase at 48 nM incubated for 24 hrs by PI staining based flow cytometric analysis (Rvb =18.84%); format: functional
[17] = test system: MGC-803; test: Induction of apoptosis in human MGC-803 cells assessed as early apoptotic cells at 96 nM incubated for 24 hrs by AnnexinV-FITC/PI staining based flow cytometric analysis (reference value: 0.38%); format: functional
[18] = test system: MGC-803; test: Antitumor activity against human MGC-803 cells xenografted in BALB/C mouse assessed as tumor growth inhibition at 0.5 mg/kg, ip administered once a day for 17 days relative to control; format: functional; settings: MGC-803, 408 h, time 17 day, read-out: TGI
[19] = Toxicity in BALB/C mouse xenografted with human MGC-803 cells assessed as decrease in body weight at 0.5 mg/kg, ip administered once daily for 17 days; format: organism-based; settings: in vivo, 408 h, time 17 day

For `Cc1ccc2c(c1)C(=O)N1CCc3c([nH]c4ccc(C)cc34)C1N2c1cccc(F)c1` (stereo not drawn), the inhibition [1] was “Active”, the inhibition [2] was 46.2% and the inhibition [3] was “Active”.
`COc1cc([C@@H]2c3cc4c(cc3[C@@H](O[C@@H]3O[C@@H]5CO[C@@H](C)O[C@H]5[C@H](O)[C@H]3O)[C@H]3COC(=O)[C@H]23)OCO4)cc(OC)c1O` [ETOPOSIDE] showed an Activity [4] of 0.8%, an Activity [5] of 0.91% and an Activity [6] of 0.75%. It also gave an Activity [7] of 62.98%, a viability at 0.096 µM [8] of 87.5% and an Activity [9] of 76.34%. It also gave an Activity [10] of 6.96%, a viability at 0.096 µM [11] of 87.4% and an Activity [12] of 10.98%. It also gave an Activity [13] of 9.4%, an Activity [14] of 16.63% and an Activity [15] of 17.72%. The Activity [16] was 19.3% and the Activity [17] was 2.29%.
In the case of `CC[C@@]1(O)C(=O)OCc2c1cc1n(c2=O)Cc2cc3c(CN(C)C)c(O)ccc3nc2-1` [TOPOTECAN], the inhibition in vivo at 0.5 mg/kg [18] is reported as 67%, the Activity [19] is reported as “Toxic” and the Activity [4] is reported as 1.75%. The Activity [5] was 1.22%, the Activity [6] was 0.8% and the Activity [7] was 58.3%. For the same molecule, the viability at 0.096 µM [8] was 77%, the Activity [9] was 79.72% and the Activity [10] was 6.84%. For the same molecule, the viability at 0.096 µM [11] was 88.1%, the Activity [12] was 9.93% and the Activity [13] was 15.95%. The Activity [14] was 13.27%, the Activity [15] was 18.52% and the Activity [16] was 22.72%. The Activity [17] was 5.23%.
